The numbers were not newly measured in US20130116244A1, “PHAR[…] COMPOSITIONS” (AESICA FORMULATION DEVELOPMENT LIMITED, priority 2010, published 2013), which cites them from elsewhere.

The conditions of series [1]: in vivo.
Assay in series [2]: not given
The source holds these as a separate data set.

The structures appear in SMILES notation.

Take `CN1C(=O)CN=C(c2ccccc2)c2cc(Cl)ccc21` [diazepam]: the “time after which anticonvulsant/sedative effects wear off” value (typically) is 15 to 30 min.

For `O=C1Nc2ccc(Cl)cc2C(c2ccccc2Cl)=NC1O` (stereo not shown) [lorazepam, 7-chloro-5-(2-chlorophenyl)-1,3-dihydro-3-hydroxy-2H-1,4-benzodiazepin-2-one], for the setting “effects can last for”, the “duration of anticonvulsant/sedative effects” value is 12 to 24 h. Moreover, in series [1], the half life is 10 to 20 h. In addition, the “diazepam dose equal in effect to lorazepam 1 mg (relative potency)” value in series [2] is recorded as 10 mg.
